Data taken from US20200405809A1, “COMBINATION OF A CYCLIN DEPENDENT KINASE INHIBITOR AND A BET- BROMODOMAIN INHIBITOR” (Pfizer Inc., priority 2018, published 2020).

Tested on: Hs766T pancreatic cancer spheroids
Assay: In vitro screen in Hs766T PDAC multicellular tumor spheroids, BET inhibitor plus palbociclib
Assay type: cell-based
Conditions: combination with palbociclib (50 nM) versus single agents
Protocol: Hs766T multicellular tumor spheroids were grown in a low-adhesion 96-well plate for use in screening. Hs766T cells were cultured in DMEM medium supplemented with 10% fetal bovine serum (GIBCO™). 2% Matrigel (Cultrex, cat#3432-005-1) was added to the medium, and 400 cells/well were subsequently seeded per well of 96-well ultralow attachment plates (ULA-96U, Thermo Fisher). Cells were grown for 4 days to allow spheroid formation, followed by initiation of compound treatment as indicated (day 0). Cells were treated either with vehicle (DMSO), or with 3 nM, 10 nM or 30 nM of test compound B7, or 30 nM, 300 nM or 3000 nM of test compound B8. […] The medium was replaced every 3 days. Spheroid average diameter was quantified every 3 days (Celigo 200-BFFL-S, Nexcelcom). Spheroid growth curves, generated as described in Example 2, are shown in FIGS. 12A-12C (B7); and FIGS. 13A-13C (B8).

Compound	Growth inhibition of Hs766T spheroids, as average diameter (mm)
CCS(=O)(=O)Nc1ccc(Oc2ccc(F)cc2F)c(-c2cn(C)c(=O)c3[nH]ccc23)c1 [B7, ABBV-075 (mivebresib)]	enhanced growth inhibition
COc1nnc2ccc(N3CCC(c4ccc(OCCN5CCN(C)C(=O)[C@H]5C)cc4)CC3)nn12 [B8, AZD5153]	enhanced growth inhibition

Tested on: T47D breast cancer multicellular tumor spheroids
Assay: In vitro screen in T47D breast cancer multicellular tumor spheroids, BET inhibitor plus palbociclib
Assay type: cell-based
Conditions: BET inhibitor (30, 300, 3000 nM) in combination with 25 nM palbociclib; from AUC of spheroid growth curves (Chalice Analyzer)
Protocol: T47D multicellular tumor spheroids were grown in a low-adhesion 96-well plate for use in screening. […] Two hundred T47D cells were seeded per well of 96-well ultralow attachment plates (ULA-96U, Thermo Fisher). Cells were grown for 4 days to allow spheroid formation, followed by initiation of compound treatment as indicated (day 0). […] The medium was replaced every 3 days. Spheroid average diameter was quantified every 3 days (Celigo 200-BFFL-S, Nexcelcom) and spheroid growth curves were obtained. The area-under-curve (AUC) was quantified and used to calculate synergy scores for BET inhibitors in combination with palbociclib (Chalice Analyzer, Horizon Discovery).

Compound	Synergy score
COc1cc(OC)c2c(=O)[nH]c(-c3cc(C)c(OCCO)c(C)c3)nc2c1 [B6, RVX-208 (RVX000222 or apabetalone)]	0.33
Cc1sc2c(c1C)C(c1ccc(Cl)cc1)=N[C@@H](CC(=O)OC(C)(C)C)c1nnc(C)n1-2 [B2, JQ1]	1.08
PFI-1 [B5]	0.76
Cc1cc2cc(NS(=O)(=O)c3ccccc3F)ccc2[nH]c1=O [B4, PFI-2]	0.79
COc1cc2c(cc1-c1c(C)noc1C)ncc1[nH]c(=O)n([C@H](C)c3ccccn3)c12 [B1, IBET-151 (GSK1210151)]	1.09

Same assay, conditions: combination with palbociclib (25 nM) versus single agents

Compound	Growth inhibition of T47D spheroids, as average diameter (mm)
CCS(=O)(=O)Nc1ccc(Oc2ccc(F)cc2F)c(-c2cn(C)c(=O)c3[nH]ccc23)c1 [B7, ABBV-075 (mivebresib)]	enhanced growth inhibition
CCNC(=O)C[C@@H]1N=C(c2ccc(Cl)cc2)c2cc(OC)ccc2-n2c(C)nnc21 [B3, IBET-762 (GSK525762)]	enhanced growth inhibition
COc1cc(OC)c2c(=O)[nH]c(-c3cc(C)c(OCCO)c(C)c3)nc2c1 [B6, RVX-208 (RVX000222 or apabetalone)]	enhanced growth inhibition
Cc1sc2c(c1C)C(c1ccc(Cl)cc1)=N[C@@H](CC(=O)OC(C)(C)C)c1nnc(C)n1-2 [B2, JQ1]	enhanced growth inhibition
Cc1noc2c1-c1ccccc1C(c1ccc(Cl)cc1)=N[C@H]2CC(N)=O [B9, CPI-0610]	enhanced growth inhibition
PFI-1 [B5]	enhanced growth inhibition
Cc1cc2cc(NS(=O)(=O)c3ccccc3F)ccc2[nH]c1=O [B4, PFI-2]	enhanced growth inhibition
COc1cc2c(cc1-c1c(C)noc1C)ncc1[nH]c(=O)n([C@H](C)c3ccccn3)c12 [B1, IBET-151 (GSK1210151)]	enhanced growth inhibition
COc1nnc2ccc(N3CCC(c4ccc(OCCN5CCN(C)C(=O)[C@H]5C)cc4)CC3)nn12 [B8, AZD5153]	enhanced growth inhibition
Cc1sc2c(c1C)C(c1ccc(Cl)cc1)=N[C@@H](CC(=O)Nc1ccc(O)cc1)c1nnc(C)n1-2 [B10, MK-8628 (OTX015)]	enhanced growth inhibition

Molecular target: BRD4 (Homo sapiens, UniProt O60885)
Assay: not given
Conditions: method not given; listed beside Literature Ref.; cited from earlier work

Compound	IC50 [nM]
CCS(=O)(=O)Nc1ccc(Oc2ccc(F)cc2F)c(-c2cn(C)c(=O)c3[nH]ccc23)c1 [B7, ABBV-075 (mivebresib)]	1.5
PFI-1 [B5]	136
Cc1cc2cc(NS(=O)(=O)c3ccccc3F)ccc2[nH]c1=O [B4, PFI-2]	96

Tested on: MCF-7 breast cancer xenograft
Assay: In vivo study in MCF-7 breast cancer xenograft
Set-up: species or system NOD scid gamma (NSG) mice
Conditions: palbociclib 50 mpk plus ABBV-075 2 mpk once daily days 0-20, recovery until day 47
Protocol: NOD scid gamma (NSG) mice (6-7 weeks old, Jax laboratory, Sacramento CA) were subcutaneously injected with 5×10^6 MCF-7 cells (ATCC) with 50% matrigel. When MCF-7 xenografts reached a volume of -150 mm^3, the tumor bearing mice were randomly assigned to four treatment groups, with each n=10 (vehicle, palbociclib (50 mpk), mivebresib (2 mpk), combination treatment with palbociclib (50 mpk) plus mivebresib (2 mpk)). Treatment was initiated after the randomization as indicated. Mice were treated once daily from days 0-20 and then tumors were allowed to recover until day 47. Mean tumor volumes (mm^3) are averages of MCF-7 xenografts (n=10).

Compound	Tumor growth delay and tumor growth inhibition (mean tumor volume)
CCS(=O)(=O)Nc1ccc(Oc2ccc(F)cc2F)c(-c2cn(C)c(=O)c3[nH]ccc23)c1 [B7, ABBV-075 (mivebresib)]	enhanced tumor growth delay and tumor growth inhibition
